Assay results published in ChEMBL document CHEMBL4732251, “Synthesis and evaluation of the epithelial-to- mesenchymal inhibitory activity of indazole-derived imidazoles as dual ALK5/p38α MAP inhibitors” (Eur J Med Chem, 2021).
Calls of active or inactive are those of the source. No cut-off for these calls is given here.

Assays:
[1] = target: Mitogen-activated protein kinase 14 (Homo sapiens, UniProt Q16539); assay: Inhibition of recombinant human p38alpha expressed in Escherichia coli assessed as incoporation of [33]Pi after 60 mins in presence of [gamma-33P]-ATP by microplate scintillation counter method
Chain of Mitogen-activated protein kinase 14 (Q16539 whole entry, the tested form may be a part): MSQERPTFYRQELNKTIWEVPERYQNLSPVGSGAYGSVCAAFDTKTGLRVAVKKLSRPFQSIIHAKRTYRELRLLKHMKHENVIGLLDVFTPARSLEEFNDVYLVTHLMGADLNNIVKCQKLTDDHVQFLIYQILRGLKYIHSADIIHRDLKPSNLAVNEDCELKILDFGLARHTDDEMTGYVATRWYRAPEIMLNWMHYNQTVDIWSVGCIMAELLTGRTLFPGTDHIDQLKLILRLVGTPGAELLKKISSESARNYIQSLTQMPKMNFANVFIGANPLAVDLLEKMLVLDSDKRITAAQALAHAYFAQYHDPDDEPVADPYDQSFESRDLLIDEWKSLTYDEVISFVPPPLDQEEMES

TGF-beta receptor type-1 = target: T1, TGF-beta receptor type-1 (Homo sapiens, UniProt P36897); assay: Inhibition of recombinant human GST-fused ALK5 expressed in baculovirus infected Sf9 cells assessed as incoporation of [33]Pi after 60 mins in presence of [gamma-33P]-ATP by microplate scintillation counter method
T1 sequence (P36897 whole entry): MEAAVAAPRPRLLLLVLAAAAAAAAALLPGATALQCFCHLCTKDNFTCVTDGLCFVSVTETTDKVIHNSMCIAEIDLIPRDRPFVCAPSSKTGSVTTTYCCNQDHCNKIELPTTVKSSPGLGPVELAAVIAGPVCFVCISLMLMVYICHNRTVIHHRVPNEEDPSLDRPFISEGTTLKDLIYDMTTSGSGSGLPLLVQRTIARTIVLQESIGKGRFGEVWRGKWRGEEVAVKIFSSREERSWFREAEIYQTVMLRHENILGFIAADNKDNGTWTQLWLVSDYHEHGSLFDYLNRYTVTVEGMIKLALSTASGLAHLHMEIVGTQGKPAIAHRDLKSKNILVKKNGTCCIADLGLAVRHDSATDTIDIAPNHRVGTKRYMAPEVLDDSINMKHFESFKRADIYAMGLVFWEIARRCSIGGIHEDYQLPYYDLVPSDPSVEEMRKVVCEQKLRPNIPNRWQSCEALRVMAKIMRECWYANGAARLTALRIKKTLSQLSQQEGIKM

U-87 MG [2] = assay: Inhibition of epithelial-mesenchymal transition in human U-87MG cells assessed as reduction in TGF-beta stimulated Slug protein expression after 48 hrs by Western blot anlaysis; type: functional, cell-based; conditions: U-87MG ATCC, dose 0.5-1 µM
U-87 MG [3] = assay: Inhibition of epithelial-mesenchymal transition in human U-87MG cells assessed as reduction in TGF-beta stimulated nuclear translocation of slug at 1 uM pretreated with compound followed by TGFbeta stimulation and measured after 48 hrs by immunofluorescence assay; type: functional, cell-based; conditions: U-87MG ATCC
U-87MG ATCC [4] = assay: Inhibition of TGF-beta-induced morphological changes in human U-87MG cells at 0.1 to 1 uM after 48 hrs; type: functional, cell-based; conditions: dose 0.1-1 µM
U-87MG ATCC [5] = assay: Reversal of TGF-beta-induced epithelial-mesenchymal transition in human U-87MG cells assessed as downregulation of N-cadherin expression at 1 uM after 48 hrs by immunofluorescence assay; type: functional, cell-based
U-87MG ATCC [6] = assay: Reversal of TGF-beta-induced epithelial-mesenchymal transition in human U-87MG cells assessed as reduction in N-cadherin protein level at 0.1 to 0.5 uM after 48 hrs by Western blotting analysis; type: functional, cell-based; conditions: dose 0.1-0.5 µM
U-87MG ATCC [7] = assay: Reversal of TGF-beta-induced epithelial-mesenchymal transition in human U-87MG cells assessed as reduction in vimentin protein level at 0.1 to 0.5 uM after 48 hrs by Western blotting analysis; type: functional, cell-based; conditions: dose 0.1-0.5 µM
U-87MG ATCC [8] = assay: Reversal of TGF-beta-induced epithelial-mesenchymal transition in human U-87MG cells assessed as reduction in N-cadherin mRNA level at 1 uM after 48 hrs by RT-PCR analysis; type: functional, cell-based
U-87MG ATCC [9] = assay: Reversal of TGF-beta-induced epithelial-mesenchymal transition in human U-87MG cells assessed as reduction in vimentin mRNA level at 1 uM after 48 hrs by RT-PCR analysis; type: functional, cell-based
U-87 MG [10] = assay: Inhibition of TGF-beta-induced cell migration in human U-87MG cells at 1 uM incubated for 36 hrs by bright field microscopy based wound healing assay; type: functional; conditions: U-87MG ATCC
U-87MG ATCC [11] = assay: Inhibition of TGF-beta-induced cell invasion in human U-87MG cells at 1 uM incubated for 24 hrs by crystal violet staining based matrigel transwell assay; type: functional
[12] = target: T2, TGF-beta receptor type-1 (Homo sapiens) (UniProt P36897); assay: Potency index, ratio of LY-2157299 IC50 to test compound IC50 for recombinant human GST-fused ALK5 expressed in baculovirus infected Sf9 cells assessed as incoporation of [33]Pi after 60 mins in presence of [gamma-33P]-ATP by microplate scintillation counter method
T2 sequence (whole entry): T1 sequence (P36897 whole entry)

[13] = target: T2, TGF-beta receptor type-1 (Homo sapiens); assay: Potency index, ratio of EW-7197 IC50 to test compound IC50 for recombinant human GST-fused ALK5 expressed in baculovirus infected Sf9 cells assessed as incoporation of [33]Pi after 60 mins in presence of [gamma-33P]-ATP by microplate scintillation counter method

Row | SMILES | IC50 [1] [nM] | IC50 (TGF-beta receptor type-1) [nM] | Ratio IC50 [12] | also measured
1 | Cc1cccc(-c2[nH]c(CNc3ccccc3F)nc2-c2ccc3[nH]ncc3c2)n1 | 20 | 5 |  | 
2 | Cc1cccc(-c2[nH]c(CNc3cccc(F)c3)nc2-c2ccc3[nH]ncc3c2)n1 | 4 | 4 |  | inhibition (U-87 MG [2]): Dose-dependent effect; inhibition (U-87 MG [3]): Active; inhibition (U-87MG ATCC [4]): Active; Activity (U-87MG ATCC [5]): Active; Activity (U-87MG ATCC [6]): Active; Activity (U-87MG ATCC [7]): Active; Activity (U-87MG ATCC [8]): Active; Activity (U-87MG ATCC [9]): Active; inhibition (U-87 MG [10]): Active; inhibition (U-87MG ATCC [11]): Active
3 | Cc1cccc(-c2[nH]c(CNc3ccccc3C)nc2-c2ccc3[nH]ncc3c2)n1 | 23 | 5 |  | 
4 | Cc1cccc(-c2[nH]c(CNc3ccc(F)cc3)nc2-c2ccc3[nH]ncc3c2)n1 | 52 | 6 | 3.8 | 
5 | Cc1cccc(-c2[nH]c(CNc3ccccc3C)nc2-c2ccc3c(cnn3C)c2)n1 | 71 | 24 | 3.8 | 
6 | Cc1ccc(NCc2nc(-c3ccc4[nH]ncc4c3)c(-c3cccc(C)n3)[nH]2)cc1 | 329 | 9 |  | 
7 | Cc1cccc(-c2[nH]c(CNc3ccccc3)nc2-c2ccc3c(cnn3C)c2)n1 | 66 | 14 | 3.8 | 
8 | Cc1cccc(-c2[nH]c(CNc3ccccc3F)nc2-c2ccc3c(cnn3C)c2)n1 | 95 | 13 |  | 
9 | Cc1ccc(NCc2nc(-c3ccc4c(cnn4C)c3)c(-c3cccc(C)n3)[nH]2)cc1 | 565 | 34 | 3.8 | 
10 | Cc1cccc(-c2[nH]c(CNc3ccc(F)cc3)nc2-c2ccc3c(cnn3C)c2)n1 | 112 | 16 | 3.8 | 
11 | Cc1cccc(-c2[nH]c(CNc3ccccc3)nc2-c2ccc3[nH]ncc3c2)n1 | 13 | 4 | 32.3 | Ratio IC50 [13]: 3.5
12 | Cc1cccc(NCc2nc(-c3ccc4c(cnn4C)c3)c(-c3cccc(C)n3)[nH]2)c1 | 23 | 10 |  | 
13 | Cc1cccc(NCc2nc(-c3ccc4[nH]ncc4c3)c(-c3cccc(C)n3)[nH]2)c1 | 32 | 8 | 3.8 | 
14 | Cc1cccc(-c2nn3c(c2-c2ccnc4ccc(C(N)=O)cc24)CCC3)n1 |  |  |  | inhibition (U-87 MG [2]): Dose-dependent effect; inhibition (U-87MG ATCC [4]): Active; Activity (U-87MG ATCC [6]): Active; Activity (U-87MG ATCC [7]): Active
15 | Cc1cccc(-c2[nH]c(CNc3cccc(F)c3)nc2-c2ccc3c(cnn3C)c2)n1 | 26 | 11 | 3.8 | 
